Assay results taken from the supplement of paper PMC10307832.

Legend:
Assay in all cases: relative viability (nuclei count vs DMSO), 5 days (fraction); higher = more cells survive
A549 = test system: A549
Procedure, shortened: (§1)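 Lung cancer cell lines were pin-tool dosed in 1536-well plates on the day after seeding, with either a lone drug or a fixed anchor-drug dose plus five library-drug doses (not always all listed) in √10 steps. Nuclei were counted on 4× images after 5 days. Relative viability is the ratio of treated-well to vehicle-well nuclei counts, with each value a median of duplicate plates.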

HCC-366 = test system: HCC-366
Procedure, shortened: as §1

HCC-44 = test system: HCC-44
Procedure, shortened: as §1

LOU-NH91 = test system: LOU-NH91
Procedure, shortened: as §1

LXF-289 = test system: LXF-289
Procedure, shortened: as §1

NCI-H1437 = test system: NCI-H1437
Procedure, shortened: as §1

NCI-H1648 = test system: NCI-H1648
Procedure, shortened: as §1

NCI-H2085 = test system: NCI-H2085
Procedure, shortened: as §1

NCI-H3122 = test system: NCI-H3122
Procedure, shortened: as §1

Nc1ccn([C@@H]2O[C@H](CO)[C@@H](O)[C@@H]2O)c(=O)n1 [Cytarabine] + Nc1ncn([C@H]2C[C@H](O)[C@@H](CO)O2)c(=O)n1 [Decitabine] (partner 2 µM)
relative viability (A549; first compound 0.005 µM): 0.215
relative viability (A549; first compound 0.01581 µM): 0.115
relative viability (A549; first compound 0.05 µM): 0.161
relative viability (A549; first compound 0.1581 µM): 0.0447
relative viability (A549; first compound 0.5 µM): 0.0287
relative viability (HCC-366; first compound 0.005 µM): 0.402
relative viability (HCC-366; first compound 0.01581 µM): 0.292
relative viability (HCC-366; first compound 0.05 µM): 0.231
relative viability (HCC-366; first compound 0.1581 µM): 0.0925
relative viability (HCC-366; first compound 0.5 µM): 0.0894
relative viability (HCC-44; first compound 0.005 µM): 1.04
relative viability (HCC-44; first compound 0.01581 µM): 0.941
relative viability (HCC-44; first compound 0.05 µM): 0.87
relative viability (HCC-44; first compound 0.1581 µM): 0.748
relative viability (HCC-44; first compound 0.5 µM): 0.737
relative viability (LOU-NH91; first compound 0.005 µM): 0.751
relative viability (LOU-NH91; first compound 0.01581 µM): 0.742
relative viability (LOU-NH91; first compound 0.05 µM): 0.696
relative viability (LOU-NH91; first compound 0.1581 µM): 0.545
relative viability (LOU-NH91; first compound 0.5 µM): 0.491
relative viability (LXF-289; first compound 0.005 µM): 0.387
relative viability (LXF-289; first compound 0.01581 µM): 0.312
relative viability (LXF-289; first compound 0.05 µM): 0.314
relative viability (LXF-289; first compound 0.1581 µM): 0.227
relative viability (LXF-289; first compound 0.5 µM): 0.197
relative viability (NCI-H1437; first compound 0.005 µM): 0.498
relative viability (NCI-H1437; first compound 0.01581 µM): 0.442
relative viability (NCI-H1437; first compound 0.05 µM): 0.48
relative viability (NCI-H1437; first compound 0.1581 µM): 0.338
relative viability (NCI-H1437; first compound 0.5 µM): 0.268
relative viability (NCI-H1648; first compound 0.005 µM): 0.479
relative viability (NCI-H1648; first compound 0.01581 µM): 0.526
relative viability (NCI-H1648; first compound 0.05 µM): 0.502
relative viability (NCI-H1648; first compound 0.1581 µM): 0.35
relative viability (NCI-H1648; first compound 0.5 µM): 0.362
relative viability (NCI-H2085; first compound 0.005 µM): 0.491
relative viability (NCI-H2085; first compound 0.01581 µM): 0.512
relative viability (NCI-H2085; first compound 0.05 µM): 0.518
relative viability (NCI-H2085; first compound 0.1581 µM): 0.483
relative viability (NCI-H2085; first compound 0.5 µM): 0.559
relative viability (NCI-H3122; first compound 0.005 µM): 0.459
relative viability (NCI-H3122; first compound 0.01581 µM): 0.383
relative viability (NCI-H3122; first compound 0.05 µM): 0.374
relative viability (NCI-H3122; first compound 0.1581 µM): 0.228
relative viability (NCI-H3122; first compound 0.5 µM): 0.26

CC(=O)O[C@@]12CO[C@@H]1C[C@H](O)[C@@]1(C)C(=O)[C@H](O)C3=C(C)[C@@H](OC(=O)[C@H](O)[C@@H](NC(=O)OC(C)(C)C)c4ccccc4)C[C@@](O)([C@@H](OC(=O)c4ccccc4)[C@H]21)C3(C)C [Docetaxel] + CC(=O)c1c(C)c2cnc(Nc3ccc(N4CCNCC4)cn3)nc2n(C2CCCC2)c1=O [Palbociclib] (partner 0.5 µM)
relative viability (HCC-366; first compound 0.0002 µM): 0.327
relative viability (HCC-366; first compound 0.000632 µM): 0.0952
relative viability (HCC-366; first compound 0.002 µM): 0.066
relative viability (HCC-366; first compound 0.006325 µM): 0.0347
relative viability (HCC-366; first compound 0.02 µM): 0.0219
relative viability (HCC-44; first compound 0.0002 µM): 0.904
relative viability (HCC-44; first compound 0.000632 µM): 1.01
relative viability (HCC-44; first compound 0.002 µM): 0.968
relative viability (HCC-44; first compound 0.006325 µM): 0.691
relative viability (HCC-44; first compound 0.02 µM): 0.632
relative viability (LOU-NH91; first compound 0.0002 µM): 0.553
relative viability (LOU-NH91; first compound 0.000632 µM): 0.534
relative viability (LOU-NH91; first compound 0.002 µM): 0.491
relative viability (LOU-NH91; first compound 0.006325 µM): 0.43
relative viability (LOU-NH91; first compound 0.02 µM): 0.324
relative viability (LXF-289; first compound 0.0002 µM): 0.578
relative viability (LXF-289; first compound 0.000632 µM): 0.569
relative viability (LXF-289; first compound 0.002 µM): 0.337
relative viability (LXF-289; first compound 0.006325 µM): 0.222
relative viability (LXF-289; first compound 0.02 µM): 0.131
relative viability (NCI-H1437; first compound 0.0002 µM): 0.261
relative viability (NCI-H1437; first compound 0.000632 µM): 0.33
relative viability (NCI-H1437; first compound 0.002 µM): 0.297
relative viability (NCI-H1437; first compound 0.02 µM): 0.156
relative viability (NCI-H1648; first compound 0.0002 µM): 0.265
relative viability (NCI-H1648; first compound 0.000632 µM): 0.26
relative viability (NCI-H1648; first compound 0.002 µM): 0.271
relative viability (NCI-H1648; first compound 0.006325 µM): 0.249
relative viability (NCI-H1648; first compound 0.02 µM): 0.247
relative viability (NCI-H2085; first compound 0.0002 µM): 0.463
relative viability (NCI-H2085; first compound 0.000632 µM): 0.551
relative viability (NCI-H2085; first compound 0.002 µM): 0.539
relative viability (NCI-H2085; first compound 0.006325 µM): 0.48
relative viability (NCI-H2085; first compound 0.02 µM): 0.42
relative viability (NCI-H3122; first compound 0.0002 µM): 0.184
relative viability (NCI-H3122; first compound 0.000632 µM): 0.205
relative viability (NCI-H3122; first compound 0.002 µM): 0.174
relative viability (NCI-H3122; first compound 0.006325 µM): 0.187
relative viability (NCI-H3122; first compound 0.02 µM): 0.114
